Experimental data as given in patent publication US10499642B2, “Isoxazoline-substituted benzamides and analogues as insecticides” (SYNGENTA PARTICIPATIONS AG, priority 2015, dated 2019).
Where two headings read alike, the source gives them in different places.

Experiments:
Type in all cases: in vivo
Diabrotica Balteata = test: Diabrotica balteata (corn root worm) maize sprout test; details: 96 h, read-out: effect in at least one of the two categories (mortality or growth inhibition)
In short: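 Scoring covered both mortality and growth inhibition relative to untreated controls, 4 days post-infestation. Test solutions at 200 ppm, diluted in water from 10′000 ppm DMSO stocks, were sprayed onto agar-held maize sprouts, which after drying received 6 to 10 L2 larvae each well.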

Myzus persicae = Myzus persicae (green peach aphid) sunflower leaf disc test; details: foliar, 144 h
Protocol: Myzus persicae (Green Peach Aphid):
Sunflower leaf discs were placed on agar in a 24-well microtiter plate and sprayed with test solutions at an application rate of 200 ppm. After drying, the leaf discs were infested with an aphid population of mixed ages. After an incubation period of 6 days after treatment, samples were checked for mortality. The following compounds gave at least 80% mortality of Myzus persicae: […]

Thrips tabaci = Thrips tabaci (onion thrips) sunflower leaf disc test; details: foliar, 144 h
Protocol: Thrips tabaci (Onion Thrips):
(§1) Sunflower leaf discs were placed on agar in 24-well microtiter plates and sprayed with aqueous test solutions prepared from 10′000 ppm DMSO stock solutions. After drying the leaf discs were infested with a thrips population of mixed ages. The samples were assessed for mortality 6 days after infestation.

Plutella xylostella = Plutella xylostella (diamond back moth) artificial diet test; details: 120 h, read-out: effect in at least one of the two categories (mortality or growth inhibition)
In short: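 At a 200 ppm rate, test solutions were applied to artificial diet and allowed to dry before second-instar larvae were added. Five days later, larval mortality and growth inhibition were rated against untreated samples.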

Spodoptera littoralis = Spodoptera littoralis (Egyptian cotton leaf worm) cotton leaf disc test; details: foliar, 72 h, read-out: control (at least one of mortality, anti-feedant effect, and growth inhibition)
In short: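 Five first-instar larvae per disc were placed on dried, sprayed cotton leaf discs held on agar. Test solutions were aqueous, made from 10′000 ppm DMSO stocks. At day 3, control was counted when mortality, feeding deterrence or growth inhibition exceeded the untreated discs.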

Tetranychus urticae = Tetranychus urticae (two-spotted spider mite) bean leaf disc test; details: foliar, 192 h
Protocol: Tetranychus urticae (Two-Spotted Spider Mite):
as §1, with “Bean” for “Sunflower”, “discs” for “discs were placed”, “were” for “and”, “mite” for “thrips”, “on mixed population (mobile stages) 8” for “6”

COC1=NO[C@@H](NC(=O)c2ccc(C3=NO[C@@](c4cc(Cl)c(Cl)c(Cl)c4)(C(F)(F)F)C3)cc2C)C1 (single isomer, unassigned) [Compound A149]
≥ 80%: percent effect (mortality or growth inhibition) at 200 ppm (Diabrotica Balteata) | mortality at 200 ppm (Myzus persicae) | mortality at 200 ppm (Thrips tabaci) | percent effect (mortality or growth inhibition) at 200 ppm (Plutella xylostella) | percent control (mortality, anti-feedant effect or growth inhibition) at 200 ppm (Spodoptera littoralis) | mortality at 200 ppm (Tetranychus urticae)

Cc1cc(C2=NO[C@@](c3cc(Cl)c(F)c(Cl)c3)(C(F)(F)F)C2)ccc1C(=O)NC1CC(OCC(F)(F)C(F)C(F)(F)F)=NO1 (stereo partly drawn) [Compound A075]
≥ 80%: percent effect (mortality or growth inhibition) at 200 ppm (Diabrotica Balteata) | mortality at 200 ppm (Myzus persicae) | mortality at 200 ppm (Thrips tabaci) | percent effect (mortality or growth inhibition) at 200 ppm (Plutella xylostella) | percent control (mortality, anti-feedant effect or growth inhibition) at 200 ppm (Spodoptera littoralis) | mortality at 200 ppm (Tetranychus urticae)

CC1=NOC(N(C=O)C(=O)c2ccc(C3=NO[C@@](c4cc(Cl)c(F)c(Cl)c4)(C(F)(F)F)C3)cc2Br)C1 (stereo partly drawn) [Compound A034, 2-bromo-4-[(5S)-5-(3,5-dichloro-4-fluoro-phenyl)-5-(trifluoromethyl)-4H-isoxazol-3-yl]-N-formyl-N-(3-methyl-4,5-dihydroisoxazol-5-yl)benzamide]
≥ 80%: percent effect (mortality or growth inhibition) at 200 ppm (Diabrotica Balteata) | mortality at 200 ppm (Myzus persicae) | mortality at 200 ppm (Thrips tabaci) | percent effect (mortality or growth inhibition) at 200 ppm (Plutella xylostella) | percent control (mortality, anti-feedant effect or growth inhibition) at 200 ppm (Spodoptera littoralis) | mortality at 200 ppm (Tetranychus urticae)

CCOC1=NOC(NC(=O)c2ccc(C3=NO[C@@](c4cc(Cl)cc(C(F)(F)F)c4)(C(F)(F)F)C3)cc2Cl)C1 (stereo partly drawn) [Compound A066]
≥ 80%: percent effect (mortality or growth inhibition) at 200 ppm (Diabrotica Balteata) | mortality at 200 ppm (Myzus persicae) | mortality at 200 ppm (Thrips tabaci) | percent effect (mortality or growth inhibition) at 200 ppm (Plutella xylostella) | percent control (mortality, anti-feedant effect or growth inhibition) at 200 ppm (Spodoptera littoralis) | mortality at 200 ppm (Tetranychus urticae)

COC1=NOC(NC(=O)c2ccc(C3=NO[C@@](c4cc(Cl)c(Cl)c(Cl)c4)(C(F)(F)F)C3)cc2C)C1 (stereo partly drawn) [Compound A041]
≥ 80%: percent effect (mortality or growth inhibition) at 200 ppm (Diabrotica Balteata) | mortality at 200 ppm (Myzus persicae) | mortality at 200 ppm (Thrips tabaci) | percent effect (mortality or growth inhibition) at 200 ppm (Plutella xylostella) | percent control (mortality, anti-feedant effect or growth inhibition) at 200 ppm (Spodoptera littoralis) | mortality at 200 ppm (Tetranychus urticae)

Cc1cc(C2=NO[C@@](c3cc(Cl)cc(Cl)c3)(C(F)(F)F)C2)ccc1C(=O)N(C=O)C1CC(C(F)(F)F)=NO1 (stereo partly drawn) [Compound A138]
≥ 80%: percent effect (mortality or growth inhibition) at 200 ppm (Diabrotica Balteata) | mortality at 200 ppm (Myzus persicae) | mortality at 200 ppm (Thrips tabaci) | percent effect (mortality or growth inhibition) at 200 ppm (Plutella xylostella) | percent control (mortality, anti-feedant effect or growth inhibition) at 200 ppm (Spodoptera littoralis) | mortality at 200 ppm (Tetranychus urticae)

Cc1cc(C2=NO[C@@](c3cc(Cl)c(F)c(Cl)c3)(C(F)(F)F)C2)ccc1C(=O)NC1CC(OCC(F)(F)C(F)(F)F)=NO1 (stereo partly drawn) [Compound A102]
≥ 80%: percent effect (mortality or growth inhibition) at 200 ppm (Diabrotica Balteata) | mortality at 200 ppm (Myzus persicae) | mortality at 200 ppm (Thrips tabaci) | percent effect (mortality or growth inhibition) at 200 ppm (Plutella xylostella) | percent control (mortality, anti-feedant effect or growth inhibition) at 200 ppm (Spodoptera littoralis) | mortality at 200 ppm (Tetranychus urticae)

Cc1cc(C2=NO[C@@](c3cc(Cl)c(F)c(Cl)c3)(C(F)(F)F)C2)ccc1C(=O)N[C@@H]1CC(Br)=NO1 (single isomer, unassigned) [Compound A147]
≥ 80%: percent effect (mortality or growth inhibition) at 200 ppm (Diabrotica Balteata) | mortality at 200 ppm (Myzus persicae) | mortality at 200 ppm (Thrips tabaci) | percent effect (mortality or growth inhibition) at 200 ppm (Plutella xylostella) | percent control (mortality, anti-feedant effect or growth inhibition) at 200 ppm (Spodoptera littoralis) | mortality at 200 ppm (Tetranychus urticae)

COC1=NOC(NC(=O)c2ccc(C3=NO[C@@](c4cccc(C(F)(F)F)c4)(C(F)(F)F)C3)cc2C)C1 (stereo partly drawn) [Compound A057]
≥ 80%: percent effect (mortality or growth inhibition) at 200 ppm (Diabrotica Balteata; application rate 200 ppm, maize sprouts, L2 larvae, 4 days after infestation) | mortality at 200 ppm (Myzus persicae; application rate 200 ppm, sunflower leaf discs, population of mixed ages, 6 days after treatment, read-out: mortality) | mortality at 200 ppm (Thrips tabaci; application rate 200 ppm, sunflower leaf discs, population of mixed ages, 6 days after infestation, read-out: mortality) | percent effect (mortality or growth inhibition) at 200 ppm (Plutella xylostella; application rate 200 ppm, artificial diet, L2 larvae, 5 days after infestation) | percent control (mortality, anti-feedant effect or growth inhibition) at 200 ppm (Spodoptera littoralis; application rate 200 ppm, cotton leaf discs, L1 larvae, 3 days after infestation) | mortality at 200 ppm (Tetranychus urticae; application rate 200 ppm, bean leaf discs, mixed population (mobile stages), 8 days after infestation, read-out: mortality)

C=CCOC1=NOC(NC(=O)c2ccc(C3=NO[C@@](c4cc(Cl)c(F)c(Cl)c4)(C(F)(F)F)C3)cc2C)C1 (stereo partly drawn) [Compound A072]
≥ 80%: percent effect (mortality or growth inhibition) at 200 ppm (Diabrotica Balteata) | mortality at 200 ppm (Myzus persicae) | mortality at 200 ppm (Thrips tabaci) | percent effect (mortality or growth inhibition) at 200 ppm (Plutella xylostella) | percent control (mortality, anti-feedant effect or growth inhibition) at 200 ppm (Spodoptera littoralis) | mortality at 200 ppm (Tetranychus urticae)

CC1=NOC(N(C=O)C(=O)c2ccc(C3=NO[C@@](c4cc(Cl)c(F)c(Cl)c4)(C(F)(F)F)C3)cc2Cl)C1 (stereo partly drawn) [Compound A033, 2-chloro-4-[(5S)-5-(3,5-dichloro-4-fluoro-phenyl)-5-(trifluoromethyl)-4H-isoxazol-3-yl]-N-formyl-N-(3-methyl-4,5-dihydroisoxazol-5-yl)benzamide]
≥ 80%: percent effect (mortality or growth inhibition) at 200 ppm (Diabrotica Balteata) | mortality at 200 ppm (Myzus persicae) | mortality at 200 ppm (Thrips tabaci) | percent effect (mortality or growth inhibition) at 200 ppm (Plutella xylostella) | percent control (mortality, anti-feedant effect or growth inhibition) at 200 ppm (Spodoptera littoralis) | mortality at 200 ppm (Tetranychus urticae)

CC(=O)C1=NOC(N(C=O)C(=O)c2ccc(C3=NO[C@@](c4cc(Cl)c(F)c(Cl)c4)(C(F)(F)F)C3)cc2C)C1 (stereo partly drawn) [Compound A014, N-(3-acetyl-4,5-dihydroisoxazol-5-yl)-4-[(5S)-5-(3,5-dichloro-4-fluoro-phenyl)-5-(trifluoromethyl)-4H-isoxazol-3-yl]-N-formyl-2-methyl-benzamide]
≥ 80%: percent effect (mortality or growth inhibition) at 200 ppm (Diabrotica Balteata) | mortality at 200 ppm (Myzus persicae) | mortality at 200 ppm (Thrips tabaci) | percent effect (mortality or growth inhibition) at 200 ppm (Plutella xylostella) | percent control (mortality, anti-feedant effect or growth inhibition) at 200 ppm (Spodoptera littoralis) | mortality at 200 ppm (Tetranychus urticae)

Cc1cc(C2=NO[C@@](c3cc(Cl)c(Cl)c(Cl)c3)(C(F)(F)F)C2)ccc1C(=O)NC1CC(OCc2ccncc2)=NO1 (stereo partly drawn) [Compound A124, 2-methyl-N-[3-(4-pyridylmethoxy)-4,5-dihydroisoxazol-5-yl]-4-[(5S)-5-(3,4,5-trichlorophenyl)-5-(trifluoromethyl)-4H-isoxazol-3-yl]benzamide]
≥ 80%: percent effect (mortality or growth inhibition) at 200 ppm (Diabrotica Balteata) | mortality at 200 ppm (Myzus persicae) | mortality at 200 ppm (Thrips tabaci) | percent effect (mortality or growth inhibition) at 200 ppm (Plutella xylostella) | percent control (mortality, anti-feedant effect or growth inhibition) at 200 ppm (Spodoptera littoralis) | mortality at 200 ppm (Tetranychus urticae)

Cc1cc(C2=NO[C@@](c3cc(Cl)c(F)c(Cl)c3)(C(F)(F)F)C2)ccc1C(=O)NC1CC(Br)=NO1 (stereo partly drawn) [Compound A001, N-(3-bromo-4,5-dihydroisoxazol-5-yl)-4-[(5S)-5-(3,5-dichloro-4-fluoro-phenyl)-5-(trifluoromethyl)-4H-isoxazol-3-yl]-2-methyl-benzamide]
≥ 80%: percent effect (mortality or growth inhibition) at 200 ppm (Diabrotica Balteata) | mortality at 200 ppm (Myzus persicae) | mortality at 200 ppm (Thrips tabaci) | percent effect (mortality or growth inhibition) at 200 ppm (Plutella xylostella) | percent control (mortality, anti-feedant effect or growth inhibition) at 200 ppm (Spodoptera littoralis) | mortality at 200 ppm (Tetranychus urticae)

CCCOC1=NOC(NC(=O)c2ccc(C3=NO[C@@](c4cc(Cl)c(F)c(Cl)c4)(C(F)(F)F)C3)cc2C)C1 (stereo partly drawn) [Compound A070]
≥ 80%: percent effect (mortality or growth inhibition) at 200 ppm (Diabrotica Balteata) | mortality at 200 ppm (Myzus persicae) | mortality at 200 ppm (Thrips tabaci) | percent effect (mortality or growth inhibition) at 200 ppm (Plutella xylostella) | percent control (mortality, anti-feedant effect or growth inhibition) at 200 ppm (Spodoptera littoralis) | mortality at 200 ppm (Tetranychus urticae)

CC1=NOC(N(C=O)C(=O)c2ccc(C3=NO[C@@](c4cc(Cl)c(F)c(Cl)c4)(C(F)(F)F)C3)cc2C)C1 (stereo partly drawn) [Compound A008, 4-[(5S)-5-(3,5-dichloro-4-fluoro-phenyl)-5-(trifluoromethyl)-4H-isoxazol-3-yl]-N-formyl-2-methyl-N-(3-methyl-4,5-dihydroisoxazol-5-yl)benzamide]
≥ 80%: percent effect (mortality or growth inhibition) at 200 ppm (Diabrotica Balteata) | mortality at 200 ppm (Myzus persicae) | mortality at 200 ppm (Thrips tabaci) | percent effect (mortality or growth inhibition) at 200 ppm (Plutella xylostella) | percent control (mortality, anti-feedant effect or growth inhibition) at 200 ppm (Spodoptera littoralis) | mortality at 200 ppm (Tetranychus urticae)

Cc1cc(C2=NO[C@@](c3cc(Cl)c(F)c(Cl)c3)(C(F)(F)F)C2)ccc1C(=O)NC1CC(OCC(F)(F)F)=NO1 (stereo partly drawn) [Compound A103]
≥ 80%: percent effect (mortality or growth inhibition) at 200 ppm (Diabrotica Balteata) | mortality at 200 ppm (Myzus persicae) | mortality at 200 ppm (Thrips tabaci) | percent effect (mortality or growth inhibition) at 200 ppm (Plutella xylostella) | percent control (mortality, anti-feedant effect or growth inhibition) at 200 ppm (Spodoptera littoralis) | mortality at 200 ppm (Tetranychus urticae)
